{"source": "ChEMBL document CHEMBL1152225", "about": "“Optimization of a series of potent and selective ketone histone deacetylase inhibitors” (Bioorg Med Chem Lett, 2008)", "key": {"[1]": {"assay": "Metabolic stability in dog liver microsomes assessed as intrinsic clearance", "format": "ADME, Canis lupus familiaris, Microsome"}, "Liver microsomes": {"tested_on": "Liver microsomes", "assay": "Metabolic stability in human liver microsomes assessed as intrinsic clearance", "format": "ADME, Microsome"}, "[2]": {"assay": "Protein binding in rat plasma", "format": "ADME, cell-free", "details": "read-out: PPB (converted)"}, "[3]": {"assay": "Protein binding in dog plasma", "format": "ADME, cell-free, Canis lupus familiaris", "details": "read-out: PPB (converted)"}, "[4]": {"assay": "Protein binding in human plasma", "format": "ADME, cell-free", "details": "read-out: PPB (converted)"}, "[5]": {"assay": "Half life in iv dosed rat", "format": "ADME, organism-based", "details": "in vivo"}, "[6]": {"assay": "Half life in iv dosed dog", "format": "ADME, organism-based, Canis lupus familiaris", "details": "in vivo"}, "[7]": {"assay": "Volume of distribution at steady state in iv dosed dog", "format": "ADME, organism-based, Canis lupus familiaris", "details": "in vivo, read-out: Vdss"}, "[8]": {"assay": "Clearance in iv dosed rat", "format": "ADME, organism-based", "details": "in vivo"}, "[9]": {"assay": "Clearance in iv dosed dog", "format": "ADME, organism-based, Canis lupus familiaris", "details": "in vivo"}, "[10]": {"assay": "Oral bioavailability dog", "format": "ADME, organism-based, Canis lupus familiaris", "details": "in vivo"}, "[11]": {"assay": "Volume of distribution at steady state in iv dosed rat", "format": "ADME, organism-based", "details": "in vivo, read-out: Vdss"}, "HeLa": {"tested_on": "HeLa", "assay": "Antiproliferative activity against human HeLa cells after 72 hrs by celltiter-blue viability assay", "format": "functional, cell-based"}, "[12]": {"assay": "Metabolic stability in rat liver microsomes assessed as intrinsic clearance", "format": "ADME, Microsome"}, "[13]": {"assay": "Oral bioavailability in rat", "format": "ADME, organism-based", "details": "in vivo"}, "Histone deacetylase 2": {"biological_target": "Histone deacetylase 2 (Homo sapiens, UniProt Q92769)", "sequence (Q92769 whole entry)": "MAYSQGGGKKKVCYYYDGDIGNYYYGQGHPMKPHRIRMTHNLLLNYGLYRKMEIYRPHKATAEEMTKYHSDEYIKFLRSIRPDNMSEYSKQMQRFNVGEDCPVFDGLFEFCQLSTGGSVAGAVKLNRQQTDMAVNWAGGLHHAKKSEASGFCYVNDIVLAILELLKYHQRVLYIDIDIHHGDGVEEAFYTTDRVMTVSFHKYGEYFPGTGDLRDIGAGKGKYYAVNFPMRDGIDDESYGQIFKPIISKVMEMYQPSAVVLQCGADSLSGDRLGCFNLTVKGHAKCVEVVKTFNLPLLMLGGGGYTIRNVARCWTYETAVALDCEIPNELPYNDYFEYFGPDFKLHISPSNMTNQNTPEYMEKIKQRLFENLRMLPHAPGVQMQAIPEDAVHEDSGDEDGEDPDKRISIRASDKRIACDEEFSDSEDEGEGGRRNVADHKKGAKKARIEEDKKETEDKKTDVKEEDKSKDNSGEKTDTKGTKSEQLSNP"}, "Histone deacetylase 4": {"biological_target": "Histone deacetylase 4 (Homo sapiens, UniProt P56524)", "sequence (P56524 whole entry)": "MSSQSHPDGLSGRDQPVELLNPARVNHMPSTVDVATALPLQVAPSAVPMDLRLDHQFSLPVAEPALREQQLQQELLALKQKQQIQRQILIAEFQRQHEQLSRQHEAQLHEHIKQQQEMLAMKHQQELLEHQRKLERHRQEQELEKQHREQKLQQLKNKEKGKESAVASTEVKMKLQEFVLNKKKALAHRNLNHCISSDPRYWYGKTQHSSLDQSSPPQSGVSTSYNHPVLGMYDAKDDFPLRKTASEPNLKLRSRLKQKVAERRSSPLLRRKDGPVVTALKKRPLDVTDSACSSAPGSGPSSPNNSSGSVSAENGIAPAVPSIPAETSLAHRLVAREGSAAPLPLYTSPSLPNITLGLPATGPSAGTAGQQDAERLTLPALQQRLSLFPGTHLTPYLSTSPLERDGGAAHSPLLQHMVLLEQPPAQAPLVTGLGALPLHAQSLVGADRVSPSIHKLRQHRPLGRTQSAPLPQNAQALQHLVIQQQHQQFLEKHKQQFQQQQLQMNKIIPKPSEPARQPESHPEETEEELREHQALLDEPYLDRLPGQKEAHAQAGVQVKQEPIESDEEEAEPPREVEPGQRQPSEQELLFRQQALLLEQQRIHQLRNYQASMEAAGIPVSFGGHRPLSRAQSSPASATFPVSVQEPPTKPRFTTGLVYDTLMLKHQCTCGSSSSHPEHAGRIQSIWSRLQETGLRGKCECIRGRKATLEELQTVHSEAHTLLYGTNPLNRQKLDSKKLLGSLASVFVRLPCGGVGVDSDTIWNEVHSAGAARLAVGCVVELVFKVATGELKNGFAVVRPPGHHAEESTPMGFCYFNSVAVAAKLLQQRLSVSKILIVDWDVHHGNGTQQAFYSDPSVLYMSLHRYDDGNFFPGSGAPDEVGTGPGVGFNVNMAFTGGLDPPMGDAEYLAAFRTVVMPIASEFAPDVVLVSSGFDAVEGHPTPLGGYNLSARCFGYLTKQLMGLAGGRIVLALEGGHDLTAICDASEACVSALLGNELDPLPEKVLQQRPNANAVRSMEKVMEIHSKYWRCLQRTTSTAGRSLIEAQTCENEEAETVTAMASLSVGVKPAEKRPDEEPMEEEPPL", "assay": "Inhibition of HDAC4"}, "Histone deacetylase 5": {"biological_target": "Histone deacetylase 5 (Homo sapiens, UniProt Q9UQL6)", "sequence (Q9UQL6 whole entry)": "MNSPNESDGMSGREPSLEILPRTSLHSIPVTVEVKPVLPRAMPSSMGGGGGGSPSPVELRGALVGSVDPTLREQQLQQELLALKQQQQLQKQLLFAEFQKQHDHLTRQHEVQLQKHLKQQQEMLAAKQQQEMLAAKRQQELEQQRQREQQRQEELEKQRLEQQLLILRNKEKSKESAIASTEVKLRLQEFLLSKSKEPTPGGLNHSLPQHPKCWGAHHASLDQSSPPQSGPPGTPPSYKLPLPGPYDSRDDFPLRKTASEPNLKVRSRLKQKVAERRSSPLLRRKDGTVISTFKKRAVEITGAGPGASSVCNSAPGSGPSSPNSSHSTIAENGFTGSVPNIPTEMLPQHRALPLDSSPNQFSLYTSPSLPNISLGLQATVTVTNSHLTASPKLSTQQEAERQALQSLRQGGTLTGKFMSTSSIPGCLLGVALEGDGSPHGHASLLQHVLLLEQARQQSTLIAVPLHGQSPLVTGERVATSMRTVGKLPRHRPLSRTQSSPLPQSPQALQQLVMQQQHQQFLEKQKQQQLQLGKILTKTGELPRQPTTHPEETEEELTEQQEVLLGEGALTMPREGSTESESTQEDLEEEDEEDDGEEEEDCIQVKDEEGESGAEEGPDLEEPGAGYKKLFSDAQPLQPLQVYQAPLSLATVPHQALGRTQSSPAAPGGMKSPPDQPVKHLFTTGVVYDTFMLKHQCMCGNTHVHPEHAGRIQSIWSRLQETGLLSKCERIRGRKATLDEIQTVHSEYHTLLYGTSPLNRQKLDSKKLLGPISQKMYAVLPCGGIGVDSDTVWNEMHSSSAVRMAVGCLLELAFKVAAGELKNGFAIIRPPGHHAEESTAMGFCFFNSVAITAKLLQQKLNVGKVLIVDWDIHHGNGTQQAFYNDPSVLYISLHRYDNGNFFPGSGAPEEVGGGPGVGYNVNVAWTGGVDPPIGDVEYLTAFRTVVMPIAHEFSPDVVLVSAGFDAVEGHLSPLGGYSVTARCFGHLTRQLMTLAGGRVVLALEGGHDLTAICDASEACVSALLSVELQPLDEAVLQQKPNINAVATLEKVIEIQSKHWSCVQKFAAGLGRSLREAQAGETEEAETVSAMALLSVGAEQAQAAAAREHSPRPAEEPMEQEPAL", "assay": "Inhibition of HDAC5"}, "Histone deacetylase 7": {"biological_target": "T1, Histone deacetylase 7 (Homo sapiens, UniProt Q8WUI4)", "T1 sequence (Q8WUI4 whole entry)": "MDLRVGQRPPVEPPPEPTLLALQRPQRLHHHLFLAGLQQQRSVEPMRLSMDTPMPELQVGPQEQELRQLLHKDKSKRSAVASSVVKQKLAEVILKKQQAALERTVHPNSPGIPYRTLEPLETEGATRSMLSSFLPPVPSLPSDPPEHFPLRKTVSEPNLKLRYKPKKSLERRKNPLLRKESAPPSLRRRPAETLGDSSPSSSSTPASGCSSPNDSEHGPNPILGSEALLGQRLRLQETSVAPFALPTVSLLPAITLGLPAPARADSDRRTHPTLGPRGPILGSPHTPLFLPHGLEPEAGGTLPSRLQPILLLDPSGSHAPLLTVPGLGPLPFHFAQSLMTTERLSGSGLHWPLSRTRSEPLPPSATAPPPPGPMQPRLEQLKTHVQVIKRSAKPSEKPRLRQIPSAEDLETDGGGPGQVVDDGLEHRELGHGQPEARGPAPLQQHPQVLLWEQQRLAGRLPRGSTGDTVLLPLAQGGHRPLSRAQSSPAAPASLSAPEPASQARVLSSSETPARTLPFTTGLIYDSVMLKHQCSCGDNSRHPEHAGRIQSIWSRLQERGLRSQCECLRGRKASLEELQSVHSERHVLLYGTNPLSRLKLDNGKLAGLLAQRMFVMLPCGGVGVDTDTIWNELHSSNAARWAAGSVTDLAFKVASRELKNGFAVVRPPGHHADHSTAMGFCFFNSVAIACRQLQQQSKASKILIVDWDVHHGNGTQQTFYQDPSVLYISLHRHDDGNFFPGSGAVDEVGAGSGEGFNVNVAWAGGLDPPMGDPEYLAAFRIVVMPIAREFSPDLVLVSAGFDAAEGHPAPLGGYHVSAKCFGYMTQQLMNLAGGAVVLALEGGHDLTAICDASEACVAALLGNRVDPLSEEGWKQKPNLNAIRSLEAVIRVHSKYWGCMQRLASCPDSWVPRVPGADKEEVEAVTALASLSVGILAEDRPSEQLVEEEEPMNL", "assay": "Inhibition of HDAC7"}, "Histone deacetylase 8": {"biological_target": "T2, Histone deacetylase 8 (Homo sapiens, UniProt Q9BY41)", "T2 sequence (Q9BY41 whole entry)": "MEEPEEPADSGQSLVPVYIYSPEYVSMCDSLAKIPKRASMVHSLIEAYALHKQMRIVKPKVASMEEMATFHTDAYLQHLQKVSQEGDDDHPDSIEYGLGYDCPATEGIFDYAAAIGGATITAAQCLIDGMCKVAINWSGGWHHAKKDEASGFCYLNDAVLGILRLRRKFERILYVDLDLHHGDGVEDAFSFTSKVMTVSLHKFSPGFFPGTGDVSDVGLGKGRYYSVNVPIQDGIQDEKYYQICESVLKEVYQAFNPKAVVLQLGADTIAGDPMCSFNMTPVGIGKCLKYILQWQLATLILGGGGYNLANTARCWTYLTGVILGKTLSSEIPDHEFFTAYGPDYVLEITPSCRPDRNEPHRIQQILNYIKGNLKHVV", "assay": "Inhibition of HDAC8"}, "HCT-116": {"tested_on": "HCT-116", "assay": "Antiproliferative activity against human HCT116 cells after 72 hrs by celltiter-blue viability assay", "format": "functional, cell-based", "details": "HCT-116, 72 h"}, "A549": {"tested_on": "A549", "assay": "Antiproliferative activity against human A549 cells after 72 hrs by celltiter-blue viability assay", "format": "functional, cell-based", "details": "A549, 72 h"}, "Histone deacetylase 1": {"biological_target": "Histone deacetylase 1 (Homo sapiens, UniProt Q13547)", "sequence (Q13547 whole entry)": "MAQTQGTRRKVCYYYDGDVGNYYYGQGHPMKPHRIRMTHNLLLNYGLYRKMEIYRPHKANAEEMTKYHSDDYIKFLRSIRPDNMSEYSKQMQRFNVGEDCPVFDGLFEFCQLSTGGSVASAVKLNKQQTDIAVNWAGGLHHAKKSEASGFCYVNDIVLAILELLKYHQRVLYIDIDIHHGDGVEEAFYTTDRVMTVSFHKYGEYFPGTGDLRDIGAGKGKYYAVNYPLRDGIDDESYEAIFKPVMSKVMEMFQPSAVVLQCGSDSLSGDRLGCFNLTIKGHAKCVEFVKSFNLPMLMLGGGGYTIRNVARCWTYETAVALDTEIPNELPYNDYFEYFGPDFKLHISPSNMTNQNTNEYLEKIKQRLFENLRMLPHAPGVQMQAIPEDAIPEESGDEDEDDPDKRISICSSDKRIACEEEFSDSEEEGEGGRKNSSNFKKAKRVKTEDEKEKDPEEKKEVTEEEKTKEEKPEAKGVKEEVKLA", "description": "Inhibition of human recombinant C-terminally flag tagged HDAC1"}, "Histone deacetylase 3": {"biological_target": "Histone deacetylase 3 (Homo sapiens, UniProt O15379)", "sequence (O15379 whole entry)": "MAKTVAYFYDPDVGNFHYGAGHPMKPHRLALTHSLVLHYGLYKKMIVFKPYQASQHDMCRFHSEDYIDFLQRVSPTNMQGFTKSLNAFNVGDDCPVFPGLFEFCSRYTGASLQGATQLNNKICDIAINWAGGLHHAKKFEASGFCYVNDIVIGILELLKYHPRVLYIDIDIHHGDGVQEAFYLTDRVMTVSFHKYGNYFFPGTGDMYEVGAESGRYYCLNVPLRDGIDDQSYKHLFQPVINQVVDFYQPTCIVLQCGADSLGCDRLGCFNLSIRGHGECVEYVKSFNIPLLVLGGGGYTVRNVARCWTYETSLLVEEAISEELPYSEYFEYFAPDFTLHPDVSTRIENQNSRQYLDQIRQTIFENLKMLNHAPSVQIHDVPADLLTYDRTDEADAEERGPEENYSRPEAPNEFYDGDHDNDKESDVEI"}, "[14]": {"biological_target": "T3, Protein deacetylase HDAC6 (Homo sapiens, UniProt Q9UBN7)", "T3 sequence (Q9UBN7 whole entry)": "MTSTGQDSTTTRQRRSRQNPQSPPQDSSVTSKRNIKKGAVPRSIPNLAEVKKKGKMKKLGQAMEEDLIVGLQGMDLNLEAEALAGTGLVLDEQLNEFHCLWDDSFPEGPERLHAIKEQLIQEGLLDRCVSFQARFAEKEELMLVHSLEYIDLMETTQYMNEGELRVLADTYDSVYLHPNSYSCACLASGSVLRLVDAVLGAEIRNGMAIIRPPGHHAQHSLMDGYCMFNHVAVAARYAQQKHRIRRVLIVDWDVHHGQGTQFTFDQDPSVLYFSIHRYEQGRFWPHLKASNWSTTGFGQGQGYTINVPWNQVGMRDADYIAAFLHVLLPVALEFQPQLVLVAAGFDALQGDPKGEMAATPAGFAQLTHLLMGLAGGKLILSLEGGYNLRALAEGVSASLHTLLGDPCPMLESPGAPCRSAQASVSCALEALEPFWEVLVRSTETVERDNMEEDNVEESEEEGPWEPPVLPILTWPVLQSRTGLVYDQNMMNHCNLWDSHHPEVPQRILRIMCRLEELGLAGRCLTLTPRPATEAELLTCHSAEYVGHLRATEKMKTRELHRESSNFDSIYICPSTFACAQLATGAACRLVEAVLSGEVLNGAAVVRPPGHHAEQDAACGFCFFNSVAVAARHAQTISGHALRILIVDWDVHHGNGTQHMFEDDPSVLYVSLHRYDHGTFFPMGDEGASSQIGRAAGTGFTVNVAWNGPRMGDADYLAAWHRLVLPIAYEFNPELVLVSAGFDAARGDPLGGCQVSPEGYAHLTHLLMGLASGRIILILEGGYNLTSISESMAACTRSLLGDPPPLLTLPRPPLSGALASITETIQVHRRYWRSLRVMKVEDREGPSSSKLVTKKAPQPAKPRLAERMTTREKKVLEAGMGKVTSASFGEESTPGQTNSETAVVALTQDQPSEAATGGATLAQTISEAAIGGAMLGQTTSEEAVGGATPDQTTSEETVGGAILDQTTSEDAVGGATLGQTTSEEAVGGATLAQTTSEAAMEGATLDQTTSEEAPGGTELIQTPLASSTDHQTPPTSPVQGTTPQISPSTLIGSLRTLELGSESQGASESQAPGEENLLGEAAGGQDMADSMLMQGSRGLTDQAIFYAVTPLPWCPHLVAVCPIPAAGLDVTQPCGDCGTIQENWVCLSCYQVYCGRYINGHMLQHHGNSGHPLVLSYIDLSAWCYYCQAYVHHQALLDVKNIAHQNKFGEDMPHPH"}}}
{"smiles": "CC(=O)CCCCC[C@H](NC(=O)C1CCN(C)CC1)c1ncc(-c2ccc3ccccc3c2)[nH]1", "values": [{"measurement": "CL", "setting": "[1]", "result": 10, "unit": "µL/min/mg"}, {"measurement": "CL", "setting": "Liver microsomes", "result": 12, "unit": "µL/min/mg"}, {"measurement": "fraction unbound", "setting": "[2]", "result": 0.11}, {"measurement": "fraction unbound", "setting": "[3]", "result": 0.04}, {"measurement": "fraction unbound", "setting": "[4]", "result": 0.04}, {"measurement": "half-life", "setting": "[5]", "result": 2.4, "unit": "h"}, {"measurement": "half-life", "setting": "[6]", "result": 11.8, "unit": "h"}, {"measurement": "Vd", "setting": "[7]", "result": 5.2, "unit": "L/kg"}, {"measurement": "clearance", "setting": "[8]", "result": 133, "unit": "mL/min/kg"}, {"measurement": "clearance", "setting": "[9]", "result": 7, "unit": "mL/min/kg"}, {"measurement": "bioavailability", "setting": "[10]", "result": 28, "unit": "%"}, {"measurement": "Vd", "setting": "[11]", "result": 6.9, "unit": "L/kg"}, {"measurement": "IC50", "setting": "HeLa", "result": 300, "unit": "nM"}, {"measurement": "microsomal CLint", "setting": "[12]", "result": 194, "unit": "µL/min/mg"}, {"measurement": "bioavailability", "setting": "[13]", "result": 0, "unit": "%"}, {"measurement": "IC50", "setting": "Histone deacetylase 2", "result": 29, "unit": "nM"}, {"measurement": "IC50", "setting": "Histone deacetylase 4", "result": "> 1000", "unit": "nM"}, {"measurement": "IC50", "setting": "Histone deacetylase 5", "result": "> 1000", "unit": "nM"}, {"measurement": "IC50", "setting": "Histone deacetylase 7", "result": "> 1000", "unit": "nM"}, {"measurement": "IC50", "setting": "Histone deacetylase 8", "result": "> 1000", "unit": "nM"}, {"measurement": "IC50", "setting": "HCT-116", "result": 590, "unit": "nM"}, {"measurement": "IC50", "setting": "A549", "result": 720, "unit": "nM"}, {"measurement": "IC50", "setting": "Histone deacetylase 1", "result": 11, "unit": "nM"}, {"measurement": "IC50", "setting": "Histone deacetylase 3", "result": 17, "unit": "nM"}, {"measurement": "IC50", "setting": "[14]", "result": 10, "unit": "nM"}]}
